# In ChEMBL document CHEMBL1201862, “PubChem BioAssay data set” (2004):
#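 48-hour exposure; five concentrations; linearly interpolated endpoints. GI50 is the concentration that inhibits growth by half.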 Calls of active or inactive are those of the source. Rule as the data show it: active = GI50 up to about 1.1 µM and inactive = higher.
# Columns and labels:
# Experiment in all cases: growth of human tumour cells (NCI), 48 h
# CAKI-1 = test system: CAKI-1
# HOP-62 = test system: HOP-62
# SN12C = test system: SN12C
# HCT-15 = test system: HCT-15
# T47D = test system: T47D
# 786-0 = test system: 786-0
# MOLT-4 = test system: MOLT-4
# NCI/ADR-RES = test system: NCI/ADR-RES
# HOP-92 = test system: HOP-92
# SK-MEL-28 = test system: SK-MEL-28
# U-251 = test system: U-251
# MDA-MB-231 = test system: MDA-MB-231
# EKVX = test system: EKVX
# RPMI-8226 = test system: RPMI-8226
# SK-MEL-5 = test system: SK-MEL-5
# SF-295 = test system: SF-295
# SW-620 = test system: SW-620
# HCC 2998 = test system: HCC 2998
# SR = test system: SR
# UACC-62 = test system: UACC-62
# MDA-N = test system: MDA-N
# Hs-578T = test system: Hs-578T
# HT-29 = test system: HT-29
# OVCAR-4 = test system: OVCAR-4
# CCRF-CEM = test system: CCRF-CEM
# BT-549 = test system: BT-549
# OVCAR-8 = test system: OVCAR-8
# PC-3 = test system: PC-3
# RXF 393 = test system: RXF 393
# NCI-H460 = test system: NCI-H460
# HL-60 = test system: HL-60
# OVCAR-3 = test system: OVCAR-3
# A549 = test system: A549
# SF-539 = test system: SF-539
# K562 = test system: K562
# SF-268 = test system: SF-268
# TK-10 = test system: TK-10
# MCF7 = test system: MCF7
# ACHN = test system: ACHN
# KM12 = test system: KM12
# SNB-19 = test system: SNB-19
# SK-OV-3 = test system: SK-OV-3
# UACC-257 = test system: UACC-257
# Malme-3M = test system: Malme-3M
# COLO 205 = test system: COLO 205
# LOX IMVI = test system: LOX IMVI
# M14 = test system: M14
# DU-145 = test system: DU-145
# MDA-MB-435 = test system: MDA-MB-435
# HCT-116 = test system: HCT-116
# UO-31 = test system: UO-31
# NCI-H522 = test system: NCI-H522
# IGROV-1 = test system: IGROV-1
# SK-MEL-2 = test system: SK-MEL-2
# OVCAR-5 = test system: OVCAR-5
# A498 = test system: A498
# NCI-H23 = test system: NCI-H23
# SNB-75 = test system: SNB-75
# NCI-H226 = test system: NCI-H226
structure (smiles),measurement,setting,value
CN1CCc2cc3c(c4c2C1C(O)c1ccccc1-4)OCO3 (stereo not given),GI50,CAKI-1,3.75 µM (inactive)
same,GI50,HOP-62,4.67 µM (inactive)
same,GI50,SN12C,3.03 µM (inactive)
same,GI50,HCT-15,3.59 µM
same,GI50,T47D,13 µM (inactive)
same,GI50,786-0,6.21 µM (inactive)
same,GI50,MOLT-4,2.98 µM (inactive)
same,GI50,NCI/ADR-RES,6.47 µM (inactive)
same,GI50,HOP-92,2.16 µM (inactive)
same,GI50,SK-MEL-28,20.2 µM (inactive)
same,GI50,U-251,6.07 µM (inactive)
same,GI50,MDA-MB-231,6.05 µM (inactive)
same,GI50,EKVX,7.83 µM (inactive)
same,GI50,RPMI-8226,7.01 µM (inactive)
same,GI50,SK-MEL-5,7.98 µM (inactive)
same,GI50,SF-295,5.69 µM (inactive)
same,GI50,SW-620,7.53 µM (inactive)
same,GI50,HCC 2998,8.91 µM (inactive)
same,GI50,SR,4.6 µM (inactive)
same,GI50,UACC-62,8.22 µM (inactive)
same,GI50,MDA-N,5.08 µM (inactive)
same,GI50,Hs-578T,3.19 µM (inactive)
same,GI50,HT-29,3.5 µM (inactive)
same,GI50,OVCAR-4,6.04 µM (inactive)
same,GI50,CCRF-CEM,2.41 µM (inactive)
same,GI50,BT-549,3.86 µM (inactive)
same,GI50,OVCAR-8,7.53 µM (inactive)
same,GI50,PC-3,5.37 µM (inactive)
same,GI50,RXF 393,2.52 µM (inactive)
same,GI50,NCI-H460,3.33 µM (inactive)
same,GI50,HL-60,2.23 µM (inactive)
same,GI50,OVCAR-3,14.4 µM (inactive)
same,GI50,A549,3.89 µM (inactive)
same,GI50,SF-539,4.72 µM (inactive)
same,GI50,K562,4.57 µM (inactive)
same,GI50,SF-268,6.3 µM (inactive)
same,GI50,TK-10,14.2 µM (inactive)
same,GI50,MCF7,4.31 µM (inactive)
same,GI50,ACHN,6.05 µM (inactive)
same,GI50,KM12,7.52 µM (inactive)
same,GI50,SNB-19,10.6 µM (inactive)
same,GI50,SK-OV-3,21.4 µM (inactive)
same,GI50,UACC-257,7.19 µM (inactive)
same,GI50,Malme-3M,8 µM (inactive)
same,GI50,COLO 205,4.95 µM (inactive)
same,GI50,LOX IMVI,4.25 µM (inactive)
same,GI50,M14,5.12 µM (inactive)
same,GI50,DU-145,9.73 µM (inactive)
same,GI50,MDA-MB-435,6.12 µM (inactive)
same,GI50,HCT-116,3.68 µM (inactive)
same,GI50,UO-31,6.1 µM (inactive)
same,GI50,NCI-H522,2.93 µM (inactive)
same,GI50,IGROV-1,6.61 µM (inactive)
same,GI50,SK-MEL-2,9.59 µM (inactive)
same,GI50,OVCAR-5,8.24 µM (inactive)
same,GI50,A498,3.27 µM (inactive)
same,GI50,NCI-H23,12 µM (inactive)
same,GI50,SNB-75,12.6 µM (inactive)
OCCCCn1cc(Cn2ncc3c(O)ncnc32)nn1,GI50,CAKI-1,> 100 µM (inactive)
same,GI50,HOP-62,> 100 µM (inactive)
same,GI50,SN12C,> 100 µM (inactive)
same,GI50,HCT-15,> 100 µM
same,GI50,T47D,> 100 µM (inactive)
same,GI50,786-0,> 100 µM (inactive)
same,GI50,MOLT-4,> 100 µM (inactive)
same,GI50,NCI/ADR-RES,> 100 µM (inactive)
same,GI50,HOP-92,> 100 µM (inactive)
same,GI50,SK-MEL-28,> 100 µM (inactive)
same,GI50,U-251,> 100 µM (inactive)
same,GI50,MDA-MB-231,> 100 µM (inactive)
same,GI50,EKVX,> 100 µM (inactive)
same,GI50,RPMI-8226,> 100 µM (inactive)
same,GI50,SK-MEL-5,> 100 µM (inactive)
same,GI50,SF-295,> 100 µM (inactive)
same,GI50,SW-620,> 100 µM (inactive)
same,GI50,HCC 2998,> 100 µM (inactive)
same,GI50,SR,> 100 µM (inactive)
same,GI50,UACC-62,> 100 µM (inactive)
same,GI50,MDA-N,> 100 µM (inactive)
same,GI50,Hs-578T,> 100 µM (inactive)
same,GI50,HT-29,> 100 µM (inactive)
same,GI50,OVCAR-4,> 100 µM (inactive)
same,GI50,CCRF-CEM,> 100 µM (inactive)
same,GI50,BT-549,> 100 µM (inactive)
same,GI50,OVCAR-8,> 100 µM (inactive)
same,GI50,PC-3,> 100 µM (inactive)
same,GI50,RXF 393,> 100 µM (inactive)
same,GI50,NCI-H460,> 100 µM (inactive)
same,GI50,OVCAR-3,> 100 µM (inactive)
same,GI50,A549,> 100 µM (inactive)
same,GI50,SF-539,> 100 µM (inactive)
same,GI50,K562,> 100 µM (inactive)
same,GI50,SF-268,> 100 µM (inactive)
same,GI50,TK-10,> 100 µM (inactive)
same,GI50,MCF7,> 100 µM (inactive)
same,GI50,ACHN,> 100 µM (inactive)
same,GI50,KM12,> 100 µM (inactive)
same,GI50,SNB-19,> 100 µM (inactive)
same,GI50,SK-OV-3,> 100 µM (inactive)
same,GI50,UACC-257,> 100 µM (inactive)
same,GI50,Malme-3M,> 100 µM (inactive)
same,GI50,NCI-H226,> 100 µM (inactive)
same,GI50,COLO 205,> 100 µM (inactive)
same,GI50,LOX IMVI,> 100 µM (inactive)
same,GI50,M14,> 100 µM (inactive)
same,GI50,DU-145,> 100 µM (inactive)
same,GI50,MDA-MB-435,> 100 µM (inactive)
same,GI50,HCT-116,> 100 µM (inactive)
same,GI50,UO-31,> 100 µM (inactive)
same,GI50,NCI-H522,> 100 µM (inactive)
same,GI50,IGROV-1,> 100 µM (inactive)
same,GI50,SK-MEL-2,> 100 µM (inactive)
same,GI50,OVCAR-5,> 100 µM (inactive)
same,GI50,A498,> 100 µM (inactive)
same,GI50,NCI-H23,> 100 µM (inactive)
